In ChEMBL document CHEMBL3244417, “Potential antitumor agents. 32. Role of agent base strength in the quantitative structure--antitumor relationships for 4'-(9-acridinylamino)methanesulfonanilide analogues” (J Med Chem, 1979):

Assay: physchem
Description: Dissociation constant, pKa of the compound by UV spectrophotometric analysis

CCCS(=O)(=O)Nc1ccc(Nc2c3ccccc3nc3ccccc23)c(OC)c1
pKa: 7.41

CCS(=O)(=O)Nc1ccc(Nc2c3ccccc3nc3ccccc23)c(OC)c1
pKa: 7.4

CCCCS(=O)(=O)Nc1ccc(Nc2c3ccccc3nc3ccccc23)c(OC)c1
pKa: 7.41

CCS(=O)(=O)Nc1ccc(Nc2c3ccccc3nc3ccccc23)cc1
pKa: 7.19

CCCS(=O)(=O)Nc1ccc(Nc2c3ccccc3nc3ccccc23)cc1
pKa: 7.2

CCCCS(=O)(=O)Nc1ccc(Nc2c3ccccc3nc3ccccc23)cc1
pKa: 7.18

CCCCCS(=O)(=O)Nc1ccc(Nc2c3ccccc3nc3ccccc23)cc1
pKa: 7.19

CCCCCCS(=O)(=O)Nc1ccc(Nc2c3ccccc3nc3ccccc23)cc1
pKa: 7.17

CCS(=O)(=O)Nc1ccc(Nc2c3ccccc3nc3cc(NC(C)=O)ccc23)cc1
pKa: 7.35

CCCS(=O)(=O)Nc1ccc(Nc2c3ccccc3nc3cc(NC(C)=O)ccc23)cc1
pKa: 7.33

CCCCS(=O)(=O)Nc1ccc(Nc2c3ccccc3nc3cc(NC(C)=O)ccc23)cc1
pKa: 7.32

CCCCCS(=O)(=O)Nc1ccc(Nc2c3ccccc3nc3cc(NC(C)=O)ccc23)cc1
pKa: 7.35

CCCCCCS(=O)(=O)Nc1ccc(Nc2c3ccccc3nc3cc(NC(C)=O)ccc23)cc1
pKa: 7.34

COc1cc(NS(C)(=O)=O)ccc1Nc1c2ccccc2nc2ccccc12
pKa: 7.34

CCCCCS(=O)(=O)Nc1ccc(Nc2c3ccccc3nc3ccccc23)c(OC)c1
pKa: 7.39

CCCCCCS(=O)(=O)Nc1ccc(Nc2c3ccccc3nc3ccccc23)c(OC)c1
pKa: 7.42

COc1cc(NS(C)(=O)=O)ccc1Nc1c2ccccc2nc2c(C(N)=O)cccc12
pKa: 6.37

CCS(=O)(=O)Nc1ccc(Nc2c3ccccc3nc3c(C(N)=O)cccc23)c(OC)c1
pKa: 6.35

CCCS(=O)(=O)Nc1ccc(Nc2c3ccccc3nc3c(C(N)=O)cccc23)c(OC)c1
pKa: 6.35

CCCCS(=O)(=O)Nc1ccc(Nc2c3ccccc3nc3c(C(N)=O)cccc23)c(OC)c1
pKa: 6.34

CCCCCS(=O)(=O)Nc1ccc(Nc2c3ccccc3nc3c(C(N)=O)cccc23)c(OC)c1
pKa: 6.36

NC(=O)CCCCc1ccc(Nc2c3ccccc3nc3ccccc23)cc1
pKa: 7.7

NC(=O)CCCCCc1ccc(Nc2c3ccccc3nc3ccccc23)cc1
pKa: 7.7

NC(=O)CCCCCCCc1ccc(Nc2c3ccccc3nc3ccccc23)cc1
pKa: 7.7

NC(=O)CCCCCCCCc1ccc(Nc2c3ccccc3nc3ccccc23)cc1
pKa: 7.7

NC(=O)CCCc1ccc(Nc2c3ccccc3nc3ccccc23)cc1
pKa: 7.67

NC(=O)CCCCCCc1ccc(Nc2c3ccccc3nc3ccccc23)cc1
pKa: 7.7

CCCCCCCS(=O)(=O)Nc1ccc(Nc2c3ccccc3nc3ccccc23)c(OC)c1
pKa: 7.42

CCCCCCCCS(=O)(=O)Nc1ccc(Nc2c3ccccc3nc3ccccc23)c(OC)c1
pKa: 7.44

COc1cc(NS(C)(=O)=O)ccc1Nc1c2ccccc2nc2cc(NC(C)=O)ccc12
pKa: 7.56

CCS(=O)(=O)Nc1ccc(Nc2c3ccccc3nc3cc(NC(C)=O)ccc23)c(OC)c1
pKa: 7.54

CCCS(=O)(=O)Nc1ccc(Nc2c3ccccc3nc3cc(NC(C)=O)ccc23)c(OC)c1
pKa: 7.57

CCCCS(=O)(=O)Nc1ccc(Nc2c3ccccc3nc3cc(NC(C)=O)ccc23)c(OC)c1
pKa: 7.56

CCCCCS(=O)(=O)Nc1ccc(Nc2c3ccccc3nc3cc(NC(C)=O)ccc23)c(OC)c1
pKa: 7.54

CCCCCCS(=O)(=O)Nc1ccc(Nc2c3ccccc3nc3cc(NC(C)=O)ccc23)c(OC)c1
pKa: 7.54

CCCCCCCS(=O)(=O)Nc1ccc(Nc2c3ccccc3nc3cc(NC(C)=O)ccc23)c(OC)c1
pKa: 7.55

COc1ccc2c(Nc3ccc(NS(C)(=O)=O)cc3OC)c3ccccc3nc2c1
pKa: 7.39

CCS(=O)(=O)Nc1ccc(Nc2c3ccccc3nc3cc(OC)ccc23)c(OC)c1
pKa: 7.36

CCCS(=O)(=O)Nc1ccc(Nc2c3ccccc3nc3cc(OC)ccc23)c(OC)c1
pKa: 7.38

CCCCS(=O)(=O)Nc1ccc(Nc2c3ccccc3nc3cc(OC)ccc23)c(OC)c1
pKa: 7.35

CCOc1ccc2c(Nc3ccc(NS(C)(=O)=O)cc3OC)c3ccccc3nc2c1
pKa: 7.37

CCCOc1ccc2c(Nc3ccc(NS(C)(=O)=O)cc3OC)c3ccccc3nc2c1
pKa: 7.36

CCCCOc1ccc2c(Nc3ccc(NS(C)(=O)=O)cc3OC)c3ccccc3nc2c1
pKa: 7.34

COc1cc(NS(C)(=O)=O)ccc1Nc1c2ccccc2nc2cc(OCCO)ccc12
pKa: 7.36

COc1cc(NS(C)(=O)=O)ccc1Nc1c2ccccc2nc2cc(OCC(O)CO)ccc12 (stereo unspecified)
pKa: 7

CNC(=O)COc1ccc2c(Nc3ccc(NS(C)(=O)=O)cc3OC)c3ccccc3nc2c1
pKa: 7.35

COc1cc(NS(C)(=O)=O)ccc1Nc1c2ccccc2nc2cc(OCCCC(N)=O)ccc12
pKa: 7.36

COc1cc(NS(C)(=O)=O)ccc1Nc1c2ccccc2nc2ncccc12
pKa: 6.09

CCS(=O)(=O)Nc1ccc(Nc2c3ccccc3nc3ncccc23)c(OC)c1
pKa: 6.07

CCCS(=O)(=O)Nc1ccc(Nc2c3ccccc3nc3ncccc23)c(OC)c1
pKa: 6.04

CCCCS(=O)(=O)Nc1ccc(Nc2c3ccccc3nc3ncccc23)c(OC)c1
pKa: 6.06

CCCCCS(=O)(=O)Nc1ccc(Nc2c3ccccc3nc3ncccc23)c(OC)c1
pKa: 6.05

CCCCCCS(=O)(=O)Nc1ccc(Nc2c3ccccc3nc3ncccc23)c(OC)c1
pKa: 6.03

CCCCCCCS(=O)(=O)Nc1ccc(Nc2c3ccccc3nc3ncccc23)c(OC)c1
pKa: 6.04

COc1cc(NS(C)(=O)=O)ccc1Nc1c2ccccc2nc2cc([N+](=O)[O-])ccc12
pKa: 5.72

CCS(=O)(=O)Nc1ccc(Nc2c3ccccc3nc3cc([N+](=O)[O-])ccc23)c(OC)c1
pKa: 5.7

CCCS(=O)(=O)Nc1ccc(Nc2c3ccccc3nc3cc([N+](=O)[O-])ccc23)c(OC)c1
pKa: 5.69

CCCCS(=O)(=O)Nc1ccc(Nc2c3ccccc3nc3cc([N+](=O)[O-])ccc23)c(OC)c1
pKa: 5.71

CCCCCS(=O)(=O)Nc1ccc(Nc2c3ccccc3nc3cc([N+](=O)[O-])ccc23)c(OC)c1
pKa: 5.69

CCCCCCS(=O)(=O)Nc1ccc(Nc2c3ccccc3nc3cc([N+](=O)[O-])ccc23)c(OC)c1
pKa: 5.7

CCCCCCCS(=O)(=O)Nc1ccc(Nc2c3ccccc3nc3cc([N+](=O)[O-])ccc23)c(OC)c1
pKa: 5.69

CCCCCCS(=O)(=O)Nc1ccc(Nc2c3ccccc3nc3c(C(N)=O)cccc23)c(OC)c1
pKa: 6.33

CCCCCCCS(=O)(=O)Nc1ccc(Nc2c3ccccc3nc3c(C(N)=O)cccc23)c(OC)c1
pKa: 6.33

CCCCNC(=O)c1cccc2c(Nc3ccc(NS(C)(=O)=O)cc3OC)c3ccccc3nc12
pKa: 6.36

CCCCNC(=O)c1cccc2c(Nc3ccc(NS(=O)(=O)CCC)cc3OC)c3ccccc3nc12
pKa: 6.35

CCCCCS(=O)(=O)Nc1ccc(Nc2c3ccccc3nc3c(C(=O)NCCCC)cccc23)c(OC)c1
pKa: 6.36

CNC(=O)c1cccc2c(Nc3ccc(NS(C)(=O)=O)cc3OC)c3ccccc3nc12
pKa: 6.36

COc1cc(NS(C)(=O)=O)ccc1Nc1c2ccccc2nc2c(C(=O)N(C)C)cccc12
pKa: 6.16

COc1cc(NS(C)(=O)=O)ccc1Nc1c2ccccc2nc2c(C(=O)NCC(N)=O)cccc12
pKa: 6.18

CNC(=O)CNC(=O)c1cccc2c(Nc3ccc(NS(C)(=O)=O)cc3OC)c3ccccc3nc12
pKa: 6.2

COc1cc(NS(C)(=O)=O)ccc1Nc1c2ccccc2nc2c(C(=O)NCC(O)CO)cccc12 (stereo unspecified)
pKa: 6.34
